In patent US4713386A, “Tetrahydroazeto [2,1-a]isoquinolines and methods for treating depression” (McNeilab, Inc., priority 1986, dated 1987):

System: Mouse
Experiment: Mouse Tetrabenazine Antagonism Assay (TBZ 32 mg/kg i.p.; exploratory activity and reversal of ptosis)
Assay type: in vivo
Conditions: mice, (1:1) fumarate salt
Method: In this test, mice are injected with a test compound 30 min prior to the injection of 32 mg/kg i.p. of TBZ, a drug which decreases normal exploratory activity and induces ptosis. After 30 min. the mice are tested for two parameters: the presence of normal exploratory activity (EA) and reversal of ptosis (Pt). A control group of mice is given only 32 mg/kg i.p. of TBZ. The biological activity of the novel compounds of this invention may be understood by the representative, nonlimiting example, presented in Table I.

[1] = @ 3 mg/kg i.p., 30 min before 32 mg/kg i.p. TBZ

O=C(O)/C=C/C(=O)O.c1ccc([C@@H]2CN3CC[C@@H]3c3ccccc32)cc1 (relative stereo) [Example 1d, trans-1,4,5,9b-Tetrahydro-5-phenyl-2H-azeto[2,1-a]isoquinoline (E)-2-butenedioate]
ED50 (Mus musculus, ip, i.p., TBZ 32 mg/kg i.p.): 1.25 mg/kg | % inhibition EA (exploratory activity) [1]: 50% | % inhibition Pt (reversal of ptosis) [1]: 88%
